What all share (test): DTP human tumour cell line panel, 48 h
In assay [1] the test system is TK-10 renal.
In assay [2] the test system is SF-268 CNS.
The test system of assay [3] is BT-549 breast.
Assay [4] deals with HCT-116 colon.
The test system of assay [5] is 786-0 renal.
For assay [6], the system named is HOP-92 NSCLC.
The subject of assay [7] is OVCAR-8 ovarian.
Assay [8] has as its system UACC-62 melanoma.
The test system of assay [9] is SNB-19 CNS.

Where “and” joins values, the source holds several entries; their conditions need not be identical. Identical values can stand only once.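 Test compounds were applied to cells in 96-well plates for 48 hours at 5 doses. Abbreviation: GI50, concentration required for 50% inhibition of growth. TGI is the concentration that stops growth completely.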

In general, TGI refers to the concentration at which net growth stops. Read a high TGI as less potent growth arrest. One may read the GI50 as the concentration giving 50% growth inhibition.

For `CC(C)=CC1C(C(=O)OCc2cc3c(cc2Cl)OCO3)C1(C)C` (stereo unspecified), the TGI in assay [1], in assay [2], in assay [3], in assay [4], in assay [5] and in [6] was over 100 µM in each case. Besides, the TGI in assay [7], in assay [8] and in [9] was over 100 µM in each case.

Regarding `Cn1c2c(c3c(=O)[nH]ncc31)Cc1ccccc1-2`, the TGI in assay [1] was determined as 29.3 µM; in assay [2], 94.2 µM; in [3], 60.5 µM; in [4], 60.8 µM; in assay [5], 51 µM; in [6], 69.4 µM. In addition, the TGI is 62.8 µM in assay [7] and over 100 µM in [9].

As to `CC(=O)OC12c3ccccc3C(c3ccccc31)C1C(=O)N(N=C(C)C)C(=O)C12` (stereo unspecified), the TGI in assay [1], in [2], in assay [3], in assay [4], in [5] and in [7] was over 100 µM throughout. Also, the TGI in [8] and in assay [9] was over 100 µM throughout.

Take `CC(=O)CCC1(C(=O)OCC(C)C)CCCC1=O` (stereo unspecified): the TGI in assay [1], in assay [2], in assay [3], in assay [4], in assay [5] and in [6] was over 100 µM in each case. The TGI in assay [7], in [8] and in [9] was over 100 µM in each case.

For the compound `Cc1n[nH]c(=O)n1-n1cccc1`, the TGI in [1], in assay [2], in [3], in assay [4], in [5] and in [6] was over 100 µM each time. For the same compound, the TGI in [7], in [8] and in [9] was over 100 µM throughout.

As to `Cc1cccc2c1nc1n2C(=O)c2ccccc2-1`, the TGI in assay [1], in assay [2], in assay [3], in assay [4], in [5] and in [6] was over 100 µM in each case. For the same compound, the total growth inhibition concentration (TGI) in assay [7], in assay [8] and in assay [9] was over 100 µM throughout.

For the compound `BrC1(c2ccccc2)C[n+]2c(-c3ccccc3)cc(-c3ccccc3)cc2-c2ccccc21` (stereo unspecified), the concentration for total growth inhibition (TGI) in assay [1] is 20.6 µM; in [2], 2.96 µM; in [3], 1.85 µM; in assay [4], 8.32 µM; in assay [5] it was 13.4 µM; in assay [6], 3.7 µM. Moreover, the values for the TGI in [7] and in [9] were 6.37 µM and 17.5 µM, respectively.

`CC(=O)c1c(-c2ccc(Cl)cc2)c(C#N)c(=S)n(C2OC(CO)C(O)C(O)C2O)c1C` (stereo unspecified): the TGI in assay [1] is over 100 µM; in [2], over 100 µM; in assay [4], over 100 µM; in [5], over 100 µM; in assay [6], 65.6 µM; in assay [7], over 100 µM. The TGI in assay [8] stood at 57.8 µM; in assay [9], 84.9 µM.

Turning to `COc1ccc(O[C@H](CO)C[C@@H]2COC(C)(C)O2)cc1`, the TGI in assay [1], in [2], in assay [3], in assay [4], in [5] and in assay [7] was over 100 µM in each case. For the same compound, the TGI in assay [8] and in assay [9] was over 100 µM throughout.

For `COC(=O)C(Cc1ccccc1)NC(=O)C(CNC(=O)OCc1ccccc1)C(=O)OCc1ccccc1` (stereo unspecified), the TGI in assay [3] is over 100 µM; in [4], over 100 µM; in [6] it was over 100 µM; in assay [7], over 100 µM; in assay [8] it was > 100 µM and 85.8 µM; in assay [9], over 100 µM. In addition, the GI50 in [6] was > 100 µM and 31.9 µM; in assay [8], 52.2 µM and 22.1 µM.

`COc1cc(C=O)cc(C=Nc2ccc(Br)cc2)c1O`: the TGI in assay [1] is over 100 µM; in [2], 27.8 µM; in [3], over 100 µM; in assay [4] it was over 100 µM; in assay [6] it was 39.6 µM; in assay [7], over 100 µM. Moreover, the TGI in assay [8] was 50.1 µM; in assay [9], over 100 µM.

For `O=c1c2[nH]cnc2n(-c2ccccc2)c(=S)n1-c1ccccc1`, the TGI in [1], in [2], in assay [3], in assay [4], in assay [5] and in assay [7] was over 100 µM throughout. The TGI in assay [8] is over 100 µM.

In the case of `COC(=O)c1c(O)ccc2c1c1c(n2Cc2ccc(OC)cc2)C(=O)c2ccccc2C1`, the TGI in [1], in [2], in assay [3], in [4], in [5] and in assay [7] was over 100 µM in each case. Moreover, the TGI in assay [8] and in assay [9] was over 100 µM in each case.

With `O=[N+]([O-])/C=C/c1cc(Cl)c(/C=C/[N+](=O)[O-])cc1Cl`, the TGI was found to be 2.9 µM in assay [1]; 16.5 µM in assay [2]; 3.25 µM in assay [3]; 7.1 µM in [4]; 6.77 µM in assay [6]; 4.34 µM in [8]. Moreover, the TGI in [9] was 6.91 µM.

In the case of `COc1cc(C2c3cc4c(cc3[C@@H](Nc3ccc(F)cc3)C3COC[C@H]23)OCO4)cc(OC)c1O` (stereo partly specified), the TGI in assay [1] is over 25 µM; in [2], over 25 µM; in assay [4], 7.9 µM; in assay [5], 6.35 µM; in [7], over 25 µM; in assay [9], 16.2 µM.

On to `N#Cc1cc(F)cc(Oc2ccc(S(=O)(=O)C(F)F)c3c2CC(F)(F)[C@H]3O)c1`, for which the GI50 in assay [1] was 28.4 µM; in assay [2], 35.4 µM; in assay [3], 22.3 µM; in assay [4], 25.2 µM; in assay [6], 16 µM; in [7], 33.8 µM. Further, the GI50 is 21.7 µM in assay [8] and 37.2 µM in assay [9]. Further, the TGI in assay [1] is 82.4 µM; in assay [2], over 100 µM; in [3], over 100 µM; in assay [4], over 100 µM; in assay [6], 46.5 µM; in assay [7] it was over 100 µM. The TGI in assay [8] and in assay [9] was over 100 µM each time.

Source of the values: PubChem BioAssay (NCI).
